Test results: patent publication US12077503B2, “Substituted cyclic amides and their use as herbicides” (FMC CORPORATION, priority 2015, dated 2024)

Key:
Assay type in all cases: in vivo
[1] = tested on: ivy-leaved morning glory (Ipomoea hederacea); assay: Test G Post-Emergence Protocol; details: Ipomoea, post-emergence, 312 h, read-out: Morningglory, Ivy-leaved damage rating; for pest or weed control at 15.625 g/ha: 15.625 g ai/ha, evaluated after 13 days (100=total damage to plant; 0=no damage to plant); for pest or weed control at 62.5 g/ha: 62.5 g ai/ha; for pest or weed control at 62.5 g/ha / pest or weed control at 250 g/ha: evaluated after 13 days, 100=total damage to plant, 0=no damage to plant; for pest or weed control at 250 g/ha: 250 g ai/ha
Procedure, shortened: (§1)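 Post-emergence herbicidal damage, scored visually 0–100 at 13 days. Application at 15.625, 62.5 or 250 g/ha onto 8-day-old plants grown under glasshouse control.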

[2] = tested on: barnyardgrass (Echinochloa crus-galli); assay: Test G Post-Emergence Protocol; details: Echinochloa crus-galli, post-emergence, 312 h, read-out: Barnyardgrass damage rating; for pest or weed control at 15.625 g/ha: 15.625 g ai/ha, evaluated after 13 days (100=total damage to plant; 0=no damage to plant); for pest or weed control at 62.5 g/ha: 62.5 g ai/ha; for pest or weed control at 62.5 g/ha / pest or weed control at 250 g/ha: evaluated after 13 days, 100=total damage to plant, 0=no damage to plant; for pest or weed control at 250 g/ha: 250 g ai/ha
Procedure, shortened: as §1

[3] = tested on: redroot pigweed (Amaranthus retroflexus); assay: Test G Post-Emergence Protocol; details: Amaranthus retroflexus, post-emergence, 312 h, read-out: Pigweed, Redroot damage rating; for pest or weed control at 15.625 g/ha: 15.625 g ai/ha, evaluated after 13 days (100=total damage to plant; 0=no damage to plant); for pest or weed control at 62.5 g/ha: 62.5 g ai/ha; for pest or weed control at 62.5 g/ha / pest or weed control at 250 g/ha: evaluated after 13 days, 100=total damage to plant, 0=no damage to plant; for pest or weed control at 250 g/ha: 250 g ai/ha
Procedure, shortened: as §1

[4] = tested on: velvetleaf (Abutilon theophrasti); assay: Test G Post-Emergence Protocol; details: Abutilon theophrasti, post-emergence, 312 h, read-out: Velvetleaf damage rating; for pest or weed control at 15.625 g/ha: 15.625 g ai/ha, evaluated after 13 days (100=total damage to plant; 0=no damage to plant); for pest or weed control at 62.5 g/ha: 62.5 g ai/ha; for pest or weed control at 62.5 g/ha / pest or weed control at 250 g/ha: evaluated after 13 days, 100=total damage to plant, 0=no damage to plant; for pest or weed control at 250 g/ha: 250 g ai/ha
Procedure, shortened: as §1

[5] = tested on: giant foxtail (Setaria faberi); assay: Test G Post-Emergence Protocol; details: Setaria faberi, post-emergence, 312 h, read-out: Foxtail, Giant damage rating; for pest or weed control at 15.625 g/ha: 15.625 g ai/ha, evaluated after 13 days (100=total damage to plant; 0=no damage to plant); for pest or weed control at 62.5 g/ha: 62.5 g ai/ha; for pest or weed control at 62.5 g/ha / pest or weed control at 250 g/ha: evaluated after 13 days, 100=total damage to plant, 0=no damage to plant; for pest or weed control at 250 g/ha: 250 g ai/ha
Procedure, shortened: as §1

corn (Zea mays) [6] = assay: Test G Post-Emergence Protocol; details: Zea mays, post-emergence, 312 h, read-out: Corn damage rating; for plant injury at 15.625 g/ha: 15.625 g ai/ha, evaluated after 13 days (100=total damage to plant; 0=no damage to plant); for plant injury at 62.5 g/ha: 62.5 g ai/ha; for plant injury at 62.5 g/ha / plant injury at 250 g/ha: evaluated after 13 days, 100=total damage to plant, 0=no damage to plant; for plant injury at 250 g/ha: 250 g ai/ha
Procedure, shortened: as §1

[7] = tested on: ivy-leaved morning glory (Ipomoea hederacea); assay: Test G Pre-Emergence Protocol; details: Ipomoea, pre-emergence, 312 h, evaluated after 13 days; for pest or weed control at 15.625 g/ha: 15.625 g ai/ha; for pest or weed control at 15.625 g/ha / pest or weed control at 250 g/ha: read-out: Morningglory, Ivy-leaved damage rating (100=total damage to plant; 0=no damage to plant); for pest or weed control at 62.5 g/ha: 62.5 g ai/ha, 100=total damage to plant, 0=no damage to plant, read-out: Morningglory, Ivy-leaved damage rating; for pest or weed control at 250 g/ha: 250 g ai/ha
Procedure, shortened: (§2)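 Scores are visual damage ratings from 0 (no damage) to 100 (total plant kill), taken 13 days after treatment. Compound was sprayed one day post-sowing at 15.625, 62.5 or 250 g/ha in 50:50 acetone/water with 0.5% Tween 20.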

[8] = tested on: barnyardgrass (Echinochloa crus-galli); assay: Test G Pre-Emergence Protocol; details: Echinochloa crus-galli, pre-emergence, 312 h, evaluated after 13 days; for pest or weed control at 15.625 g/ha: 15.625 g ai/ha; for pest or weed control at 15.625 g/ha / pest or weed control at 250 g/ha: read-out: Barnyardgrass damage rating (100=total damage to plant; 0=no damage to plant); for pest or weed control at 62.5 g/ha: 62.5 g ai/ha, 100=total damage to plant, 0=no damage to plant, read-out: Barnyardgrass damage rating; for pest or weed control at 250 g/ha: 250 g ai/ha
Procedure, shortened: as §2

[9] = tested on: redroot pigweed (Amaranthus retroflexus); assay: Test G Pre-Emergence Protocol; details: Amaranthus retroflexus, pre-emergence, 312 h, evaluated after 13 days; for pest or weed control at 15.625 g/ha: 15.625 g ai/ha; for pest or weed control at 15.625 g/ha / pest or weed control at 250 g/ha: read-out: Pigweed, Redroot damage rating (100=total damage to plant; 0=no damage to plant); for pest or weed control at 62.5 g/ha: 62.5 g ai/ha, 100=total damage to plant, 0=no damage to plant, read-out: Pigweed, Redroot damage rating; for pest or weed control at 250 g/ha: 250 g ai/ha
Procedure, shortened: as §2

[10] = tested on: velvetleaf (Abutilon theophrasti); assay: Test G Pre-Emergence Protocol; details: Abutilon theophrasti, pre-emergence, 312 h, evaluated after 13 days; for pest or weed control at 15.625 g/ha: 15.625 g ai/ha; for pest or weed control at 15.625 g/ha / pest or weed control at 250 g/ha: read-out: Velvetleaf damage rating (100=total damage to plant; 0=no damage to plant); for pest or weed control at 62.5 g/ha: 62.5 g ai/ha, 100=total damage to plant, 0=no damage to plant, read-out: Velvetleaf damage rating; for pest or weed control at 250 g/ha: 250 g ai/ha
Procedure, shortened: as §2

[11] = tested on: giant foxtail (Setaria faberi); assay: Test G Pre-Emergence Protocol; details: Setaria faberi, pre-emergence, 312 h, evaluated after 13 days; for pest or weed control at 15.625 g/ha: 15.625 g ai/ha; for pest or weed control at 15.625 g/ha / pest or weed control at 250 g/ha: read-out: Foxtail, Giant damage rating (100=total damage to plant; 0=no damage to plant); for pest or weed control at 62.5 g/ha: 62.5 g ai/ha, 100=total damage to plant, 0=no damage to plant, read-out: Foxtail, Giant damage rating; for pest or weed control at 250 g/ha: 250 g ai/ha
Procedure, shortened: as §2

corn (Zea mays) [12] = assay: Test G Pre-Emergence Protocol; details: Zea mays, pre-emergence, 312 h, evaluated after 13 days; for plant injury at 15.625 g/ha: 15.625 g ai/ha; for plant injury at 15.625 g/ha / plant injury at 250 g/ha: read-out: Corn damage rating (100=total damage to plant; 0=no damage to plant); for plant injury at 62.5 g/ha: 62.5 g ai/ha, 100=total damage to plant, 0=no damage to plant, read-out: Corn damage rating; for plant injury at 250 g/ha: 250 g ai/ha
Procedure, shortened: as §2

Compound | pest or weed control at 15.625 g/ha [1] [%] | pest or weed control at 62.5 g/ha [1] [%] | pest or weed control at 250 g/ha [1] [%] | pest or weed control at 15.625 g/ha [2] [%] | pest or weed control at 62.5 g/ha [2] [%] | pest or weed control at 250 g/ha [2] [%] | pest or weed control at 15.625 g/ha [3] [%] | pest or weed control at 62.5 g/ha [3] [%] | pest or weed control at 250 g/ha [3] [%] | pest or weed control at 15.625 g/ha [4] [%] | pest or weed control at 62.5 g/ha [4] [%] | pest or weed control at 250 g/ha [4] [%] | pest or weed control at 15.625 g/ha [5] [%] | pest or weed control at 62.5 g/ha [5] [%] | pest or weed control at 250 g/ha [5] [%] | plant injury at 15.625 g/ha (corn (Zea mays) [6]) [%] | plant injury at 62.5 g/ha (corn (Zea mays) [6]) [%] | plant injury at 250 g/ha (corn (Zea mays) [6]) [%] | pest or weed control at 15.625 g/ha [7] [%] | pest or weed control at 62.5 g/ha [7] [%] | further results
CCc1cc([C@@H]2CN(C)C(=O)[C@H]2C(=O)Nc2cccc(F)c2C)ccc1Cl (racemic) [Compound 1804] | 0 | 50 | 60 | 0 | 50 | 60 | 0 | 0 | 10 | 0 | 10 | 10 | 0 | 70 | 80 | 0 | 0 | 70 | 0 | 0 | pest or weed control at 250 g/ha [7]: 10%; pest or weed control at 15.625 g/ha [8]: 0%; pest or weed control at 62.5 g/ha [8]: 80%; pest or weed control at 250 g/ha [8]: 90%; pest or weed control at 15.625 g/ha [9]: 0%; pest or weed control at 62.5 g/ha [9]: 20%; pest or weed control at 250 g/ha [9]: 30%; pest or weed control at 15.625 g/ha [10]: 0%; pest or weed control at 62.5 g/ha [10]: 10%; pest or weed control at 250 g/ha [10]: 30%; pest or weed control at 15.625 g/ha [11]: 50%; pest or weed control at 62.5 g/ha [11]: 90%; pest or weed control at 250 g/ha [11]: 90%; plant injury at 15.625 g/ha (corn (Zea mays) [12]): 0%; plant injury at 62.5 g/ha (corn (Zea mays) [12]): 0%; plant injury at 250 g/ha (corn (Zea mays) [12]): 60%
C=C(C)c1cccc([C@@H]2CN(C)C(=O)[C@H]2C(=O)Nc2cccc(F)c2C)c1 (racemic) [Compound 1828] | 20 | 60 | 70 | 30 | 80 | 80 | 0 | 0 | 20 | 0 | 20 | 10 | 70 | 80 | 80 | 0 | 10 | 70 | 0 | 0 | pest or weed control at 250 g/ha [7]: 30%; pest or weed control at 15.625 g/ha [8]: 70%; pest or weed control at 62.5 g/ha [8]: 80%; pest or weed control at 250 g/ha [8]: 90%; pest or weed control at 15.625 g/ha [9]: 0%; pest or weed control at 62.5 g/ha [9]: 0%; pest or weed control at 250 g/ha [9]: 0%; pest or weed control at 15.625 g/ha [10]: 0%; pest or weed control at 62.5 g/ha [10]: 0%; pest or weed control at 250 g/ha [10]: 30%; pest or weed control at 15.625 g/ha [11]: 80%; pest or weed control at 62.5 g/ha [11]: 90%; pest or weed control at 250 g/ha [11]: 90%; plant injury at 15.625 g/ha (corn (Zea mays) [12]): 0%; plant injury at 62.5 g/ha (corn (Zea mays) [12]): 10%; plant injury at 250 g/ha (corn (Zea mays) [12]): 70%
